“Also recorded” adds a separate entry of the source. Read-outs that look alike come from different tables or passages of the source.
Assays:
clinical = format: in vivo, human
[1] = 4-day continuous infusion with cyclophosphamide and carboplatin; cited from earlier work
[2] = cited from earlier work
[3] = median, dose level 7, daily dose 21.3 mg/m^2 for 3 days, day 8, phase I patients
[4] = with paclitaxel and carboplatin
[5] = Expanded MTD cohort, TIME + HCT
[6] = TIME regimen with autologous HCT
[7] = dose level 1, topotecan 10 mg/m^2, TIME + HCT
[8] = dose level 2, topotecan 15 mg/m^2, TIME + HCT
[9] = dose level 3, topotecan 20 mg/m^2, TIME + HCT
[10] = dose level 4, topotecan 27 mg/m^2, TIME + HCT
[11] = dose level 5, topotecan 36 mg/m^2, TIME + HCT
[12] = dose level 6, topotecan 48 mg/m^2, TIME + HCT
[13] = dose level 7, topotecan 64 mg/m^2, TIME + HCT
[14] = dose level 8, topotecan 85 mg/m^2, TIME + HCT

CC[C@@]1(O)C(=O)OCc2c1cc1n(c2=O)Cc2cc3c(CN(C)C)c(O)ccc3nc2-1 [topotecan]
AUC, Lactone (clinical; human, in vivo, 3.3 mg/m2): 0.26 µM·h
AUC, Total (clinical; human, in vivo, 3.3 mg/m2): 0.56 µM·h
Cl, Lactone (clinical; human, in vivo, 3.3 mg/m2): 27.95 L/h/m^2
Cl, Total (clinical; human, in vivo, 3.3 mg/m2): 12.97 L/h/m^2
Cmax (clinical; human, in vivo, 3.3 mg/m2): 180 nM
Cmax, Total (clinical; human, in vivo, 3.3 mg/m2): 180 nM
T1/2, Lactone (clinical; human, in vivo, 3.3 mg/m2): 2.6 h
T1/2, Total (clinical; human, in vivo, 3.3 mg/m2): 2.7 h
Vdss, Lactone (clinical; human, in vivo, 3.3 mg/m2): 56.6 L/m^2
Vdss, Total (clinical; human, in vivo, 3.3 mg/m2): 49.2 L/m^2
AUC (clinical; human, in vivo, 5 mg/m2): 0.27 µM·h
Cl, Lactone (clinical; human, in vivo, 5 mg/m2): 41.19 L/h/m^2
Cl, Total (clinical; human, in vivo, 5 mg/m2): 15.44 L/h/m^2
Cmax (clinical; human, in vivo, 5 mg/m2): 200 nM
T1/2, Total (clinical; human, in vivo, 5 mg/m2): 3.0 h
half-life (clinical; human, in vivo, 5 mg/m2): 2.7 h
AUC (clinical; human, in vivo, 6.8 mg/m2): 0.38 µM·h
AUC, Total (clinical; human, in vivo, 6.8 mg/m2): 0.86 µM·h
Cl, Lactone (clinical; human, in vivo, 6.8 mg/m2): 39.59 L/h/m^2
Cl, Total (clinical; human, in vivo, 6.8 mg/m2): 17.14 L/h/m^2
Cmax (clinical; human, in vivo, 6.8 mg/m2): 230 nM
Cmax, Total (clinical; human, in vivo, 6.8 mg/m2): 330 nM
T1/2, Total (clinical; human, in vivo, 6.8 mg/m2): 2.6 h
Vdss, Lactone (clinical; human, in vivo, 6.8 mg/m2): 113 L/m^2
Vdss, Total (clinical; human, in vivo, 6.8 mg/m2): 57.5 L/m^2
half-life (clinical; human, in vivo, 6.8 mg/m2): 3.4 h
AUC, Lactone (clinical; human, in vivo, 8.9 mg/m2): 0.70 µM·h
AUC, Total (clinical; human, in vivo, 8.9 mg/m2): 1.63 µM·h
Cl, Lactone (clinical; human, in vivo, 8.9 mg/m2): 28.1 L/h/m^2
Cl, Total (clinical; human, in vivo, 8.9 mg/m2): 12.05 L/h/m^2
Cmax (clinical; human, in vivo, 8.9 mg/m2): 480 nM
Cmax, Total (clinical; human, in vivo, 8.9 mg/m2): 520 nM
T1/2, Lactone (clinical; human, in vivo, 8.9 mg/m2): 3.1 h
Vdss, Lactone (clinical; human, in vivo, 8.9 mg/m2): 91.6 L/m^2
Vdss, Total (clinical; human, in vivo, 8.9 mg/m2): 53.7 L/m^2
AUC, Lactone (clinical; human, in vivo, 12 mg/m2): 0.88 µM·h
AUC, Total (clinical; human, in vivo, 12 mg/m2): 1.86 µM·h
Cl, Lactone (clinical; human, in vivo, 12 mg/m2): 30.11 L/h/m^2
Cl, Total (clinical; human, in vivo, 12 mg/m2): 16.43 L/h/m^2
Cmax (clinical; human, in vivo, 12 mg/m2): 610 nM
Cmax, Total (clinical; human, in vivo, 12 mg/m2): 650 nM
T1/2, Lactone (clinical; human, in vivo, 12 mg/m2): 3.2 h
T1/2, Total (clinical; human, in vivo, 12 mg/m2): 2.9 h
Vdss, Lactone (clinical; human, in vivo, 12 mg/m2): 94.4 L/m^2
Vdss, Total (clinical; human, in vivo, 12 mg/m2): 53.3 L/m^2
AUC, Lactone (clinical; human, in vivo, 15.7 mg/m2): 1.48 µM·h
AUC, Total (clinical; human, in vivo, 15.7 mg/m2): 2.77 µM·h
Cl, Lactone (clinical; human, in vivo, 15.7 mg/m2): 23.53 L/h/m^2
Cl, Total (clinical; human, in vivo, 15.7 mg/m2): 12.62 L/h/m^2
Cmax (clinical; human, in vivo, 15.7 mg/m2): 800 nM
Cmax, Total (clinical; human, in vivo, 15.7 mg/m2): 870 nM
T1/2, Lactone (clinical; human, in vivo, 15.7 mg/m2): 3.3 h
T1/2, Total (clinical; human, in vivo, 15.7 mg/m2): 3.1 h
Vdss, Lactone (clinical; human, in vivo, 15.7 mg/m2): 76.6 L/m^2
Vdss, Total (clinical; human, in vivo, 15.7 mg/m2): 48.1 L/m^2
T1/2, Lactone (clinical; human, in vivo, 21.3 mg/m2): 2.7 h
T1/2, Total (clinical; human, in vivo, 21.3 mg/m2): 2.6 h
AUC, Lactone (clinical; human, in vivo, 28.4 mg/m2): 2.40 µM·h
AUC, Total (clinical; human, in vivo, 28.4 mg/m2): 5.73 µM·h
Cl, Lactone (clinical; human, in vivo, 28.4 mg/m2): 25.77 L/h/m^2
Cl, Total (clinical; human, in vivo, 28.4 mg/m2): 10.78 L/h/m^2
Cmax (clinical; human, in vivo, 28.4 mg/m2): 1670 nM
Cmax, Total (clinical; human, in vivo, 28.4 mg/m2): 2120 nM
T1/2, Total (clinical; human, in vivo, 28.4 mg/m2): 2.4 h
Vdss, Lactone (clinical; human, in vivo, 28.4 mg/m2): 81.5 L/m^2
Vdss, Total (clinical; human, in vivo, 28.4 mg/m2): 41.1 L/m^2
Cl, Lactone (clinical; [3]): 29.10 L/h/m^2
Cl, Total (clinical; [3]): 13.43 L/h/m^2
Vdss, Lactone (clinical; [3]): 95.8 L/m^2
Vdss, Total (clinical; [3]): 63.9 L/m^2
median topotecan clearance [1]: 184 mL/min/m^2
dose-limiting toxicity ([2]; seen at 6 mg/m^2/d, with cyclophosphamide and carboplatin): severe stomatitis requiring parenteral nutrition and narcotic administration
MTD ([2]; single agent, 72-hour continuous infusion, largest dose 11 mg/m^2): not reached
dose-limiting toxicity ([2]; single-agent topotecan with hematopoietic cell support): diarrhea
dose-limiting toxicities [2, 4]: hemorrhagic stomatitis and prolonged hematopoietic recovery
topotecan dose at which 4 cycles could be given [2, 4]: 10 mg/m^2
MTD of topotecan (daily dose) (3 days, in combination with ifosfamide, mesna, etoposide, followed by autologous HCT): 21.3 mg/m^2/d
Nonrelapse deaths, cause [5]: Arrhythmia (1) and bacterial sepsis (1)
Nonrelapse deaths, number of patients [5]: 2 (13%)
dose-limiting toxicity [6]: Mucositis; also recorded: gastrointestinal toxicity
recommended phase II dose [6]: 64 mg/m^2
Cortical function, number of patients with grade 3 or 4 [7]: 0
Enteritis, number of patients with grade 3 or 4 [7]: 0
Hematuria, number of patients with grade 3 or 4 [7]: 0
Mucositis (grade 4), number of patients [7]: 1 (25%)
Nonrelapse deaths, number of patients [7]: 0
Number of days with grade 4 mucositis, median (range) [7]: 0 (0-1) days
Peripheral nerve function, number of patients with grade 3 or 4 [7]: 0
Pulmonary clinical status, number of patients with grade 3 or 4 [7]: 1 (25%)
Reduction in ejection fraction, number of patients with grade 3 or 4 [7]: 0
Cortical function, number of patients with grade 3 or 4 [8]: 1 (17%)
Enteritis, number of patients with grade 3 or 4 [8]: 1 (17%)
Hematuria, number of patients with grade 3 or 4 [8]: 1 (17%)
Mucositis (grade 4), number of patients [8]: 2 (33%)
Nonrelapse deaths, number of patients [8]: 0
Number of days with grade 4 mucositis, median (range) [8]: 0 (0-10) days
Peripheral nerve function, number of patients with grade 3 or 4 [8]: 1 (17%)
Pulmonary clinical status, number of patients with grade 3 or 4 [8]: 1 (17%)
Reduction in ejection fraction, number of patients with grade 3 or 4 [8]: 0
Cortical function, number of patients with grade 3 or 4 [9]: 0
Enteritis, number of patients with grade 3 or 4 [9]: 3 (75%)
Hematuria, number of patients with grade 3 or 4 [9]: 1 (25%)
Mucositis (grade 4), number of patients [9]: 2 (50%)
Nonrelapse deaths, number of patients [9]: 0
Number of days with grade 4 mucositis, median (range) [9]: 2.5 (0-6) days
Peripheral nerve function, number of patients with grade 3 or 4 [9]: 0
Pulmonary clinical status, number of patients with grade 3 or 4 [9]: 0
Reduction in ejection fraction, number of patients with grade 3 or 4 [9]: 0
Cortical function, number of patients with grade 3 or 4 [10]: 1 (20%)
Enteritis, number of patients with grade 3 or 4 [10]: 3 (60%)
Hematuria, number of patients with grade 3 or 4 [10]: 0
Mucositis (grade 4), number of patients [10]: 4 (80%)
Nonrelapse deaths, number of patients [10]: 0
Number of days with grade 4 mucositis, median (range) [10]: 2 (0-7) days
Peripheral nerve function, number of patients with grade 3 or 4 [10]: 0
Pulmonary clinical status, number of patients with grade 3 or 4 [10]: 1 (20%)
Reduction in ejection fraction, number of patients with grade 3 or 4 [10]: 1 (20%)
Cortical function, number of patients with grade 3 or 4 [11]: 1 (11 %)
Enteritis, number of patients with grade 3 or 4 [11]: 4 (44%)
Hematuria, number of patients with grade 3 or 4 [11]: 0
Mucositis (grade 4), number of patients [11]: 5 (56%)
Nonrelapse deaths, number of patients [11]: 0
Number of days with grade 4 mucositis, median (range) [11]: 1 (0-20) days
Peripheral nerve function, number of patients with grade 3 or 4 [11]: 0
Pulmonary clinical status, number of patients with grade 3 or 4 [11]: 0
Reduction in ejection fraction, number of patients with grade 3 or 4 [11]: 0
Cortical function, number of patients with grade 3 or 4 [12]: 0
Enteritis, number of patients with grade 3 or 4 [12]: 2 (40%)
Hematuria, number of patients with grade 3 or 4 [12]: 0
Mucositis (grade 4), number of patients [12]: 5 (100%)
Nonrelapse deaths, number of patients [12]: 0
Number of days with grade 4 mucositis, median (range) [12]: 5 (1-9) days
Peripheral nerve function, number of patients with grade 3 or 4 [12]: 0
Pulmonary clinical status, number of patients with grade 3 or 4 [12]: 0
Reduction in ejection fraction, number of patients with grade 3 or 4 [12]: 0
Cortical function, number of patients with grade 3 or 4 [13]: 0
Enteritis, number of patients with grade 3 or 4 [13]: 4 (57%)
Hematuria, number of patients with grade 3 or 4 [13]: 1 (14%)
Mucositis (grade 4), number of patients [13]: 7 (100%)
Nonrelapse deaths, cause [13]: Fungal infection
Nonrelapse deaths, number of patients [13]: 1 (14%)
Number of days with grade 4 mucositis, median (range) [13]: 6 (4-11) days
Peripheral nerve function, number of patients with grade 3 or 4 [13]: 1 (14%)
Pulmonary clinical status, number of patients with grade 3 or 4 [13]: 0
Reduction in ejection fraction, number of patients with grade 3 or 4 [13]: 0
Cortical function, number of patients with grade 3 or 4 [14]: 0
Enteritis, number of patients with grade 3 or 4 [14]: 3 (60%)
Hematuria, number of patients with grade 3 or 4 [14]: 1 (20%)
Mucositis (grade 4), number of patients [14]: 4 (80%)
Nonrelapse deaths, cause [14]: Septic shock
Nonrelapse deaths, number of patients [14]: 1 (20%)
Number of days with grade 4 mucositis, median (range) [14]: 8 (0-12) days
Peripheral nerve function, number of patients with grade 3 or 4 [14]: 0
Pulmonary clinical status, number of patients with grade 3 or 4 [14]: 0
Reduction in ejection fraction, number of patients with grade 3 or 4 [14]: 1 (20%)

Reference: article PMC4521635 (Clinical cancer research : an official journal of the …, 2011)
